Results from patent US20080220066A1 (HENDERSON MORLEY PLC, priority 2005, published 2008).
Converted amounts (≈) assume the structure as drawn. Like-named read-outs stand apart in the source and are kept apart here.

Legend:
[1] = test system: Herpes simplex virus (HSV); assay: HSV virus yield (infectious virus particle production); type: cell-based; settings: for HSV yield: solvent as listed per compound, Torasemide at 90 μg/ml
Adenovirus = assay: 50% plaque inhibitory concentration, Adenovirus; settings: unidentified adenovirus, A549, read-out: Furosemide IC50
[2] = for Flux: Q24 divided by 24
[3] = test system: Herpes simplex virus (HSV); assay: HSV standard plaque inhibition assay; type: cell-based; settings: for IC50: Herpes simplex virus; for ICVT activity: HSV plaque inhibition assay
Excerpt: Using Herpes simplex virus (HSV), 50% plaque inhibitory dose (1D50) were established using the standard plaque inhibition assay.

Cc1cccc(Nc2ccncc2S(=O)(=O)NC(=O)NC(C)C)c1 [Torasemide]
HSV yield [1]: HSV yield unaffected at 90 μg/ml

NS(=O)(=O)c1cc(C(=O)O)c(NCc2ccco2)cc1Cl [Furosemide, 5-(Aminosulfonyl)-4-chloro-2-[(2-furanylmethyl)amino]benzoic acid]
IC50 (Adenovirus): 440 ± 114 µg/mL (≈ 1330 µM) | maximum concentrations observed in the receptor phase ([2]; 40:40:20 gels): 543.60 µg/mL | Release date ([2]; Ampule Formulation): 667 μg cm^−2 h^0.5 | Q24 ([2]; Ampule Formulation (8% HPC)): 2724 μg cm^−2 | Flux ([2]; Ampule Formulation): 111 μg cm^−2 h^−1 | % applied dose ([2]; Gel 1:1, pH 7): 17.9% | Release Rate ([2]; Gel 1:1, pH 7): 7.18 μg cm^−2 h^0.5 | Flux ([2]; Gel 1:1, pH 7): 2.69 μg cm^−2 h^−1 | Q24 ([2]; Gel 1:1, prototype 40:40:20 mix, pH 7, 24 h): 64.63 μg cm^−2 | Q24 ([2]; Gel 14:1 (F:D), prototype 40:40:20 mix, […] 981NF, pH 5, 24 h): 543.60 μg cm^−2 | Flux ([2]; Gel 14:1, pH 5): 22.65 μg cm^−2 h^−1 | % applied dose ([2]; Gel 14:1, pH 5, assuming 2 g of gel in donor): 8.7% | Release Rate ([2]; Gel 14:1, pH 5, gradient of square root of time plot): 124.51 μg cm^−2 h^0.5 | % applied dose ([2]; Gel 14:1, pH 7): 5.9% | Release Rate ([2]; Gel 14:1, pH 7): 77.482 μg cm^−2 h^0.5 | Flux ([2]; Gel 14:1, pH 7): 15.24 μg cm^−2 h^−1 | % applied dose ([2]; Gel 14:1, pH 9): 3.7% | Release Rate ([2]; Gel 14:1, pH 9): 43.389 μg cm^−2 h^0.5 | Flux ([2]; Gel 14:1, pH 9): 9.61 μg cm^−2 h^−1 | Q24 ([2]; Gel 14:1, prototype 40:40:20 mix, pH 7, 24 h): 365.65 μg cm^−2 | Q24 ([2]; Gel 14:1, prototype 40:40:20 mix, pH 9, 24 h): 230.69 μg cm^−2 | Release date ([2]; HPC Formulation): 2673 μg cm^−2 h^0.5 | Q24 ([2]; HPC Formulation (revised 50:40:10 gel, 8% HPC, pH 5, 14:1)): 9085 μg cm^−2 | Flux ([2]; HPC Formulation): 388 μg cm^−2 h^−1 | Release date ([2]; Ultrez Formulation): 1027 μg cm^−2 h^0.5 | Q24 ([2]; Ultrez Formulation (revised 50:40:10 gel, […] Ultrez, pH 5, 14:1)): 6128 μg cm^−2 | Flux ([2]; Ultrez Formulation): 248 μg cm^−2 h^−1 | reduction of release rate, 1:1 Gel versus 1:14 Gel ([2]; pH 7): 10.8 fold | Virus particles per cell (feline herpesvirus; each drug at its IC50, alone or both combined, No Drug 50): 0.25 | production of infectious virus reduced by (feline herpesvirus; each drug at its IC50, individually or in combination): 99.5% | IC50 ([3]; BHK-21, read-out: Furosemide IC50, host cell BHK21): 800 µg/mL (≈ 2420 µM) | ICVT activity [3]: potent ICVT activity | IC50 ([3]; read-out: Furosemide IC50, host cell Vero): 1000 µg/mL (≈ 3020 µM)

C[C@@H]1O[C@@H](O[C@H]2C[C@@H](O)[C@]3(CO)[C@H]4[C@H](O)C[C@]5(C)[C@@H](C6=CC(=O)OC6)CC[C@]5(O)[C@@H]4CC[C@]3(O)C2)[C@H](O)[C@H](O)[C@H]1O [Strophanthin G]
HSV yield [1]: HSV yield reduced Borderline

CCCCNC(=O)NS(=O)(=O)c1ccc(C)cc1 [Tolbutamide]
ICVT activity [3]: only ‘borderline’ CVI activity | HSV yield reduced to zero ([1]; Solvent: PEG): HSV yield reduced to zero 300 μg/ml | HSV yield reduced to zero ([1]; Solvent: PG): HSV yield reduced to zero 300 μg/ml

CC(=O)Nc1nnc(S(N)(=O)=O)s1 [Acetazolamide]
ICVT activity [3]: only ‘borderline’ CVI activity

CCCCNc1cc(C(=O)O)cc(S(N)(=O)=O)c1Oc1ccccc1 [Bumetanide]
HSV yield [1]: HSV yield reduced Borderline

C[C@H]1O[C@@H](O[C@H]2[C@@H](O)C[C@H](O[C@H]3[C@@H](O)C[C@H](O[C@H]4CC[C@@]5(C)[C@H](CC[C@@H]6[C@@H]5CC[C@]5(C)[C@@H](C7=CC(=O)OC7)CC[C@]65O)C4)O[C@@H]3C)O[C@@H]2C)C[C@H](O)[C@@H]1O [Digitoxin]
ID50 ([3]; Digoxin, Digitoxin from powder 250 μg per ml in 70% ethanol, IV Lanoxin in 10% ethanol, virus not named at this place): 30 ng per ml | ICVT activity [3]: potent ICVT activity | comparative ‘ICVT-ivities’ ([3]; saturated solutions in 90% ethanol compared with Lanoxin, virus not named at this place): more effective than Digoxin | HSV yield [1]: HSV yield reduced

NS(=O)(=O)c1cc2c(cc1Cl)NCNS2(=O)=O [Hydrochiorothiazide, Hydrochlorothiazide]
ICVT activity [3]: only ‘borderline’ CVI activity | HSV yield reduced to zero at ([1]; Solvent: NaOH 1% aqueous): HSV yield reduced to zero at 600 ug/ml
